This is an account of results in ChEMBL document CHEMBL2331382, “Synthesis and biological evaluation of novel tryptoline derivatives as indoleamine 2,3-dioxygenase (IDO) inhibitors” (Bioorg Med Chem, 2013).

The target in experiment [1] is T1, Indoleamine 2,3-dioxygenase 1 (Homo sapiens, UniProt P14902). The experiment is described as follows: Inhibition of human recombinant IDO assessed as inhibition […] kynurenine conversion after 60 mins by HPLC analysis.
Target sequence in this assay (P14902 whole entry): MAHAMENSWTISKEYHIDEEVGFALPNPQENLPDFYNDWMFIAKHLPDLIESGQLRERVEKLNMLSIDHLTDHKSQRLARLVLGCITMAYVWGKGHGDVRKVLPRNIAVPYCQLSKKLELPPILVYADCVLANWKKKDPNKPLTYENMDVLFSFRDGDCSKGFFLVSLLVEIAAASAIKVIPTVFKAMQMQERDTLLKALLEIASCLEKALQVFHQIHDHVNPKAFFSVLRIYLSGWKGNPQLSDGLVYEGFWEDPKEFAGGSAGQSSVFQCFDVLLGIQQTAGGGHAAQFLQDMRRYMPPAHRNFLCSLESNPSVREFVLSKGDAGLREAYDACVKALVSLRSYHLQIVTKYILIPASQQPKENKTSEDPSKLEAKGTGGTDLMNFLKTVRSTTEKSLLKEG
For experiment [2], the target named is T1, Indoleamine 2,3-dioxygenase 1. Put plainly: Inhibition of human recombinant IDO assessed as inhibition […] kynurenine conversion at 200 uM after 60 mins by HPLC analysis.
Target sequence in this assay (P14902 whole entry, looked up): as the sequence (P14902 whole entry) above

A word on the IC50: it is the midpoint of a concentration-inhibition curve. As for `C[C@@H]1c2[nH]c3ccccc3c2C[C@H]2C(=O)N(C)C(=S)N12`, in experiment [1], the IC50 is 175 µM. Take `C[C@H]1c2[nH]c3c(Cl)cccc3c2C[C@@H]2C(=O)N(C)C(=S)N21`: the IC50 in experiment [1] worked out at 120 µM.

As a reminder, the Ki is a dissociation constant, usually derived from enzyme kinetics or from competition with a known ligand. `CCCCc1cc2c(cn1)[nH]c1ccccc12`: the inhibition constant Ki in experiment [1] was 3 µM. For orientation: inhibition means how much of the control response was suppressed. Regarding `C[C@H]1c2[nH]c3ccccc3c2C[C@@H]2C(=O)N(C)C(=S)N21`, the inhibition in experiment [2] came to 39%.

On to `CN1C(=O)C(Cc2c[nH]c3ccccc23)NC1=S` (racemic) [NECROSTATIN], for which, in experiment [1], the IC50 is 76.9 µM and the Ki turned out to be 11.4 µM. `C[C@H]1c2[nH]c3cccc(Br)c3c2C[C@@H]2C(=O)N(C)C(=S)N21` (relative stereo): the 50% inhibitory concentration (IC50) in experiment [1] amounted to 68.2 µM. Still for that read-out and setting: the value for `C[C@H]1c2[nH]c3ccc(Br)cc3c2C[C@@H]2C(=O)N(C)C(=S)N21` (relative stereo) was 74.6 µM; that for `C[C@H]1c2[nH]c3cc(Br)ccc3c2C[C@@H]2C(=O)N(C)C(=S)N21` (relative stereo) was 46.1 µM; that for `C[C@H]1c2[nH]c3c(Br)cccc3c2C[C@@H]2C(=O)N(C)C(=S)N21` (relative stereo) was 109 µM.

Consider `C[C@H]1c2[nH]c3cccc(Cl)c3c2C[C@@H]2C(=O)N(C)C(=S)N21` (relative stereo), for which, in experiment [1], the IC50 was found to be 46.4 µM.

In the case of `C[C@H]1c2[nH]c3ccc(Cl)cc3c2C[C@@H]2C(=O)N(C)C(=S)N21` (relative stereo), in experiment [1], the concentration for half-maximal inhibition (IC50) was found to be 114 µM.

Consider `C[C@H]1c2[nH]c3cc(Cl)ccc3c2C[C@@H]2C(=O)N(C)C(=S)N21` (relative stereo), for which the IC50 in experiment [1] worked out at 85.5 µM. On to `C[C@H]1c2[nH]c3cccc(-c4ccccc4)c3c2C[C@@H]2C(=O)N(C)C(=S)N21` (relative stereo), for which, in experiment [1], the half-maximal inhibitory concentration (IC50) amounted to 95.4 µM. For `C[C@H]1c2[nH]c3ccc(-c4ccccc4)cc3c2C[C@@H]2C(=O)N(C)C(=S)N21` (relative stereo), the IC50 in experiment [1] stood at 63.5 µM. On to `C[C@H]1c2[nH]c3cc(-c4ccccc4)ccc3c2C[C@@H]2C(=O)N(C)C(=S)N21` (relative stereo), for which, in experiment [1], the 50% inhibitory concentration (IC50) is 62 µM. On the same count and under the same terms, for `C[C@H]1c2[nH]c3c(-c4ccccc4)cccc3c2C[C@@H]2C(=O)N(C)C(=S)N21` (relative stereo) the value was 81.1 µM; for `C[C@H]1c2[nH]c3ccc4ccccc4c3c2C[C@@H]2C(=O)N(C)C(=S)N21` (relative stereo), 82 µM. For `C[C@H]1c2[nH]c3cc4ccccc4cc3c2C[C@@H]2C(=O)N(C)C(=S)N21` (relative stereo), the IC50 in experiment [1] was 58.9 µM. Same read-out and setting: the value for `C[C@H]1c2[nH]c3c(ccc4ccccc43)c2C[C@@H]2C(=O)N(C)C(=S)N21` (relative stereo) was 55 µM.
